# pKi: −log10 of the molar value.
# Biological target: T1, purified catalytic domain of recombinant human TACE (rhTACEc) (Homo sapiens, UniProt P78536, N452Q/S266A)
# T1 construct: rhTACEc, Residue 215 to 477 with two mutation (S266A and N4520) and a 6×His tail; 6xHis (C); made in house; host or cells: baculovirus/Hi5 insect cells
# Assay: TACE kinetic assay, cleavage of internally quenched fluorescent peptide substrate SPDL-3
# Assay type: biochemical
# Settings: Ki (nM), TACE inhibitory activity, rhTACEc 70 pM, 30 μM SPDL-3, 90 min pre-incubation at 25° C.
# T1 sequence (P78536 215-477 S266A/N452Q limits assumed): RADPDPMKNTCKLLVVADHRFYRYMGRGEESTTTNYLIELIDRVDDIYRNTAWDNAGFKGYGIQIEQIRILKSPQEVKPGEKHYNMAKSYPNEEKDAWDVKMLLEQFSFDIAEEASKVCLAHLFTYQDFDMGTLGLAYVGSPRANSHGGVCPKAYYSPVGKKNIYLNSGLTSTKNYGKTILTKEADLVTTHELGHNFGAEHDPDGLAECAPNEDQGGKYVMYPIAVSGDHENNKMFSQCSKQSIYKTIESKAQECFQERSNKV
row,Compound,Ki [nM]
1,COc1ccc2c(c1)C(=O)N(C[C@@]1(C#Cc3ccc4[nH]ccc4c3)NC(=O)NC1=O)C2 [Compound 1129],0.17

# Same assay, conditions: TACE; class letters A-D; read-out: Ki Rating
row,pKi,Compound
1,> 8.30,COc1ccc2c(c1)C(=O)N(C[C@@]1(C#Cc3cnc4[nH]c(C)nc4c3C)NC(=O)NC1=O)C2 [Compound 1098]
2,7.60 to 8.30,COc1ccc2c(c1)C(=O)N(C[C@]1(C#Cc3ccc4[nH]ccc4c3)NC(=O)NC1=O)C2 [Compound 1130]
3,> 8.30,COc1ccc2c(c1)C(=O)N(C[C@@]1(C#Cc3ccc4cc[nH]c4c3)NC(=O)NC1=O)C2 [Compound 1131]
4,> 8.30,COc1ccc2c(c1)C(=O)N(C[C@@]1(C#Cc3cccc4[nH]ccc34)NC(=O)NC1=O)C2 [Compound 1132]
5,> 8.30,COc1ccc2c(c1)C(=O)N(C[C@@]1(C#Cc3ccc(C(N)=O)cc3)NC(=O)NC1=O)C2 [Compound 1133]
6,> 8.30,COc1ccc2c(c1)C(=O)N(C[C@@]1(C#Cc3cccc(C(N)=O)c3)NC(=O)NC1=O)C2 [Compound 1134]
7,> 8.30,CCOC(=O)c1ccc(C#C[C@]2(CN3Cc4ccc(OC)cc4C3=O)NC(=O)NC2=O)cc1 [Compound 1135]
8,> 8.30,COc1ccc2c(c1)C(=O)N(C[C@@]1(C#Cc3ccc(-c4ncc[nH]4)cc3)NC(=O)NC1=O)C2 [Compound 1136]
9,> 8.30,COc1ccc2c(c1)C(=O)N(C[C@@]1(C#Cc3ccccc3C(N)=O)NC(=O)NC1=O)C2 [Compound 1137]
10,> 8.30,COc1ccc2c(c1)C(=O)N(C[C@@]1(C#Cc3ccc(C(=O)O)cc3)NC(=O)NC1=O)C2 [Compound 1138]
11,> 8.30,COc1ccc2c(c1)C(=O)N(C[C@@]1(C#Cc3ccc4c(c3)OCO4)NC(=O)NC1=O)C2 [Compound 1139]
12,> 8.30,COc1ccc2c(c1)C(=O)N(C[C@@]1(C#Cc3ccc(Cl)c(C(=O)O)c3)NC(=O)NC1=O)C2 [Compound 1140]
13,> 8.30,CNC(=O)c1ccc(C#C[C@]2(CN3Cc4ccc(OC)cc4C3=O)NC(=O)NC2=O)cc1 [Compound 1141]
14,> 8.30,COc1ccc2c(c1)C(=O)N(C[C@@]1(C#Cc3ccc(C(=O)NCCN(C)C)cc3)NC(=O)NC1=O)C2 [Compound 1142]
15,> 8.30,COc1ccc2c(c1)C(=O)N(C[C@@]1(C#Cc3ccc(Cl)c(C(=O)NCCN(C)C)c3)NC(=O)NC1=O)C2 [Compound 1143]
16,> 8.30,CNC(=O)c1cc(C#C[C@]2(CN3Cc4ccc(OC)cc4C3=O)NC(=O)NC2=O)ccc1Cl [Compound 1144]
17,> 8.30,COc1ccc2c(c1)C(=O)N(C[C@@]1(C#Cc3ccc(C(=O)N4CCOCC4)cc3)NC(=O)NC1=O)C2 [Compound 1145]
18,> 8.30,COc1ccc2c(c1)C(=O)N(C[C@@]1(C#Cc3ccccc3Cl)NC(=O)NC1=O)C2 [Compound 1146]
19,> 8.30,COc1cccc(C#C[C@]2(CN3Cc4ccc(OC)cc4C3=O)NC(=O)NC2=O)c1 [Compound 1147]

row,pKi,Compound
1,> 8.30,COc1ccc2c(c1)C(=O)N(C[C@@]1(C#Cc3cccc(OC(F)F)c3)NC(=O)NC1=O)C2 [Compound 1148]
2,> 8.30,COc1ccc2c(c1)C(=O)N(C[C@@]1(C#Cc3ccc(F)c(OC)c3)NC(=O)NC1=O)C2 [Compound 1149]
3,> 8.30,COc1ccc2c(c1)C(=O)N(C[C@@]1(C#Cc3ccc(F)c(O)c3)NC(=O)NC1=O)C2 [Compound 1150]
4,> 8.30,COc1ccc2c(c1)C(=O)N(C[C@@]1(C#Cc3ccc(F)c(C(N)=O)c3)NC(=O)NC1=O)C2 [Compound 1151]
5,> 8.30,COc1ccc2c(c1)C(=O)N(C[C@@]1(C#Cc3ccc(N)nc3)NC(=O)NC1=O)C2 [Compound 1152]
6,> 8.30,COc1ccc2c(c1)C(=O)N(C[C@@]1(C#Cc3ccc(N4CCOCC4)nc3)NC(=O)NC1=O)C2 [Compound 1153]
7,> 8.30,COc1ccc2c(c1)C(=O)N(C[C@@]1(C#Cc3ccccc3C#N)NC(=O)NC1=O)C2 [Compound 1154]
8,> 8.30,COc1ccc2c(c1)C(=O)N(C[C@@]1(C#Cc3ccc(C)nc3)NC(=O)NC1=O)C2 [Compound 1155]
9,> 8.30,COc1ccc2c(c1)C(=O)N(C[C@@]1(C#Cc3ccc(C)cc3)NC(=O)NC1=O)C2 [Compound 1156]
10,> 8.30,COc1ccc2c(c1)C(=O)N(C[C@@]1(C#Cc3ccc(NC(C)=O)nc3)NC(=O)NC1=O)C2 [Compound 1157]
11,> 8.30,O=C1NC(=O)[C@@](C#Cc2cccnc2)(CN2Cc3ccc(F)cc3C2=O)N1 [Compound 1200]
12,> 8.30,COc1ccc2c(c1)CN(C[C@@]1(C#Cc3cc(F)cc(F)c3)NC(=O)NC1=O)C2=O [Compound 1201]
13,> 8.30,COc1ccc2c(c1)CN(C[C@@]1(C#Cc3ccc(F)cc3F)NC(=O)NC1=O)C2=O [Compound 1202]
14,> 8.30,COc1ccc2c(c1)C(=O)N(C[C@@]1(C#Cc3ccc4occc4c3)NC(=O)NC1=O)C2 [Compound 1203]
15,> 8.30,COc1ccc2c(c1)C(=O)N(C[C@@]1(C#Cc3cn(C)c(=O)n(C)c3=O)NC(=O)NC1=O)C2 [Compound 1204]
16,> 8.30,COc1ccc2c(c1)C(=O)N(C[C@@]1(C#Cc3c[nH]c(=O)[nH]c3=O)NC(=O)NC1=O)C2 [Compound 1205]
17,> 8.30,COc1ccc2c(c1)C(=O)N(C[C@@]1(C#Cc3nc4ncnc(N)c4n3C)NC(=O)NC1=O)C2 [Compound 1208]
18,> 8.30,O=C1NC(=O)[C@@](C#Cc2ccc3cnoc3c2)(CN2Cc3ccc(F)cc3C2=O)N1 [Compound 1211]
19,> 8.30,COc1ccc2c(c1)C(=O)N(C[C@@]1(C#Cc3ccc4nn(C(C)C)cc4c3)NC(=O)NC1=O)C2 [Compound 1212]

# More lines, now with the values behind:
row,Compound,pKi
1,COc1ccc2c(c1)C(=O)N(C[C@]1(C#Cc3ccc(C(=O)NC4CC4)cc3)NC(=O)NC1=O)C2 [Compound 1067],< 7.00
2,COc1ccc2c(c1)C(=O)N(C[C@]1(C#Cc3ccc(C#N)s3)NC(=O)NC1=O)C2 [Compound 1068],< 7.00
3,COc1ccc2c(c1)C(=O)N(C[C@@]1(C#Cc3ccc4[nH]c(=O)[nH]c4c3)NC(=O)NC1=O)C2 [Compound 1069],> 8.30
4,COc1ccc2c(c1)C(=O)N(C[C@@]1(C#Cc3csc(CN)c3)NC(=O)NC1=O)C2 [Compound 1070],> 8.30
5,COc1ccc2c(c1)C(=O)N(C[C@@]1(C#Cc3cc(Cl)c(Br)s3)NC(=O)NC1=O)C2 [Compound 1071],> 8.30
6,COc1ccc2c(c1)C(=O)N(C[C@@]1(C#Cc3ccc(CO)s3)NC(=O)NC1=O)C2 [Compound 1072],> 8.30
7,COc1ccc2c(c1)C(=O)N(C[C@]1(C#Cc3ccc(C(C)N)cc3)NC(=O)NC1=O)C2 (stereo partly shown) [Compound 1073],< 7.00
8,CNCc1cc(C#C[C@@]2(CN3Cc4ccc(OC)cc4C3=O)NC(=O)NC2=O)cs1 [Compound 1074],< 7.00
9,COc1ccc2c(c1)C(=O)N(C[C@]1(C#Cc3ccc(C(C)O)cc3)NC(=O)NC1=O)C2 (stereo partly shown) [Compound 1075],< 7.00
10,COc1ccc2c(c1)C(=O)N(C[C@@]1(C#Cc3ccc([C@H](C)N)cc3)NC(=O)NC1=O)C2 [Compound 1076],> 8.30
11,CNCc1cc(C#C[C@@]2(CN3Cc4ccc(OC)cc4C3=O)NC(=O)NC2=O)cs1 [Compound 1077],> 8.30
12,COc1ccc2c(c1)C(=O)N(C[C@@]1(C#Cc3ccc(C(C)O)cc3)NC(=O)NC1=O)C2 (stereo partly shown) [Compound 1078],> 8.30
13,COc1ccc2c(c1)C(=O)N(C[C@@]1(C#Cc3cnccc3CO)NC(=O)NC1=O)C2 [Compound 1079],> 8.30
14,COc1ccc2c(c1)C(=O)N(C[C@@]1(C#Cc3sccc3Cl)NC(=O)NC1=O)C2 [Compound 1080],> 8.30
15,CON=Cc1ccc(C#C[C@@]2(CN3Cc4ccc(OC)cc4C3=O)NC(=O)NC2=O)cc1 [Compound 1081],< 7.00
16,CO/N=C(/C)c1ccc(C#C[C@]2(CN3Cc4ccc(OC)cc4C3=O)NC(=O)NC2=O)s1 [Compound 1082],> 8.30

row,Compound,pKi
1,CO/N=C(\C)c1ccc(C#C[C@]2(CN3Cc4ccc(OC)cc4C3=O)NC(=O)NC2=O)s1 [Compound 1083],> 8.30
2,CON=Cc1ccc(C#C[C@]2(CN3Cc4ccc(OC)cc4C3=O)NC(=O)NC2=O)s1 [Compound 1084],> 8.30
3,CO/N=C/c1cccc(C#C[C@]2(CN3Cc4ccc(OC)cc4C3=O)NC(=O)NC2=O)c1 [Compound 1085],> 8.30
4,CON=Cc1ccc(C#C[C@]2(CN3Cc4ccc(OC)cc4C3=O)NC(=O)NC2=O)cc1 [Compound 1086],> 8.30
5,COc1ccc2c(c1)CCN(CC1(C#Cc3cccnc3)NC(=O)NC1=O)C2=O (stereo not shown) [Compound 1087],> 8.30
6,COc1ccc2c(c1)CCN(CC1(C#Cc3ccc(Cl)s3)NC(=O)NC1=O)C2=O (stereo not shown) [Compound 1088],7.60 to 8.30
7,COc1ccc2c(c1)C(=O)N(C[C@@]1(C#Cc3cccc(C=NO)c3)NC(=O)NC1=O)C2 [Compound 1089],> 8.30
8,COc1ccc2c(c1)C(=O)N(C[C@@]1(C#Cc3ccc(C(C)=NO)s3)NC(=O)NC1=O)C2 [Compound 1090],> 8.30
9,COc1ccc2c(c1)C(=O)N(C[C@@]1(C#Cc3ccc(C=NO)cc3)NC(=O)NC1=O)C2 [Compound 1091],> 8.30
10,COc1ccc2c(c1)CCN(C[C@@]1(C#Cc3cccnc3)NC(=O)NC1=O)C2=O [Compound 1092],> 8.30
11,COc1ccc2c(c1)CCN(C[C@@]1(C#Cc3ccc(Cl)s3)NC(=O)NC1=O)C2=O [Compound 1093],> 8.30
12,COc1ccc2c(c1)C(=O)N(C[C@]1(C#Cc3cnc4[nH]c(C)nc4c3C)NC(=O)NC1=O)C2 [Compound 1094],< 7.00
13,COc1ccc2c(c1)C(=O)N(C[C@@]1(C#Cc3ccc4c(c3)n(C)c(=O)n4C)NC(=O)NC1=O)C2 [Compound 1095],> 8.30
14,COc1ccc2c(c1)CCN(C[C@]1(C#Cc3cccnc3)NC(=O)NC1=O)C2=O [Compound 1096],< 7.00
15,COc1ccc2c(c1)CCN(C[C@]1(C#Cc3ccc(Cl)s3)NC(=O)NC1=O)C2=O [Compound 1097],< 7.00
16,COc1ccc2c(c1)C(=O)N(C[C@@]1(C#Cc3ccc4[nH]ccc4c3)NC(=O)NC1=O)C2 [Compound 1129],> 8.30

# Same assay, conditions: rhTACEc 70 pM, 30 μM SPDL-3, 90 min pre-incubation at 25° C.; read-out: Ki (nM), TACE inhibitory activity
row,Ki [nM],Compound
1,1.8,COc1ccc2c(c1)C(=O)N(C[C@@]1(C#Cc3cccc4[nH]ccc34)NC(=O)NC1=O)C2 [Compound 1132]
2,0.03,COc1ccc2c(c1)C(=O)N(C[C@@]1(C#Cc3ccc(N)nc3)NC(=O)NC1=O)C2 [Compound 1152]
3,0.41,COc1ccc2c(c1)C(=O)N(C[C@@]1(C#Cc3ccc(C)nc3)NC(=O)NC1=O)C2 [Compound 1155]

# Continued, compound first:
row,Compound,Ki [nM]
1,COc1ccc2c(c1)C(=O)N(C[C@@]1(C#Cc3ccc(C(C)=NO)s3)NC(=O)NC1=O)C2 [Compound 1090],0.3
2,COc1ccc2c(c1)CCN(C[C@@]1(C#Cc3cccnc3)NC(=O)NC1=O)C2=O [Compound 1092],0.37

# From US7772263B2, “Compounds for the treatment of inflammatory disorders” (Schering Corporation, priority 2006, dated 2010)
